Test results published in US7977317B2, “Compositions and methods for modulating blood-brain barrier transport” (Raptor Pharmaceutical Inc., priority 2001, dated 2011).

Tests used:
[1] = In situ brain perfusion with capillary depletion; assay type: in vivo; conditions: mice, 10 min perfusion, 10 nM [125I]-protein (FIG. 11b)
Procedure: FIG. 11 examines the accumulation and transcytosis of p97. FIG. 11a, of [^125I]-p97, [^125I]-BSA and [^125I]-holo-transferrin one hour after i.v. injection. The radioactivity in brain was compared between the three compounds. (n=3); FIG. 11b, Accumulation of p97 and transferrin into the mouse brain parenchyma. In situ brain perfusion was performed with human [^125I]-p97 or [^125I]-holo-transferrin at a final concentration of 10 nM via a catheter inserted in the right common carotid artery. The volume of distribution (VD) of [^125I]-proteins were obtained in the whole brain homogenate (white bars), in brain capillaries (solid bars) and in brain parenchyma (hatched bars) after isolation of the right hemisphere and capillary depletion. Results were obtained for p97 (n=10) and for holo-transferrin (n=6); FIG. 11c, Transcytosis of p97 across BBCEC monolayers. Transcytosis experiments were performed 37° C. (open circles) and 4° C. (closed circles) with BBCEC monolayers. […] Apical-to-basal and basal-to-apical transport of [^125I]-p97 (25 nM) was measured for 2 hrs at 37° C. At the end of the experiment, [^125I]-p97 was assessed in the lower or upper chambers of each well by TCA precipitation (n=4).
A. Brain uptake and in situ brain perfusion. […] The serum and brain samples were collected and the levels of radioactivity were measured. […]

[2] = test system: bovine brain capillary endothelial cell monolayers; assay: Competition of [125I]-p97 binding on bovine brain capillary endothelial cell monolayers; conditions: [125I]-p97 25 nM, 2 h at 4° C., competitor 7.5 micromolar (FIG. 3)
Procedure: FIG. 3. Binding of p97 on bovine brain capillary endothelial cell monolayers. Binding p97 was performed with BBCECs that were pre-incubated 2 hrs in Ringer-Hepes to avoid any interference from the astrocytes. For the binding experiments, cells were incubated for 2 h at 4° C. in Ringer/Hepes in the presence of [^125I]-p97 (25 nM) and 7.5 micromolar concentrations of cold-p97, transferrin or lactoferrin, respectively. At the end of the incubation, the filters were gently washed at 4° C. three times with 4 ml of cold-PBS. Then the associated radioactivity of endothelial cells was determined by removing the membrane of the culture insert and counting it in a gamma counter.
B. Binding studies of p97. Binding of p97 was performed with BBCECs and Rat Brain Endothelial Cells that were pre-incubated 2 hrs in Ringer/Hepes to avoid any interference from the astrocytes.
For the binding experiments, cells were incubated for 2 h at 4° C. in Ringer/Hepes in the presence of [^125I]-p97 (25 nM) and increasing concentrations of cold-p97 or high (7.5 micromolar) concentrations of transferrin or lactoferrin. At the end of the incubation, the filters were gently washed at 4° C. three times with 4 ml of cold-PBS. Then the associated radioactivity of endothelial cells was determined by removing the membrane of the culture insert and counting it in a gamma counter.

BBCEC monolayers = assay: Accumulation of ligands in BBCEC monolayers; assay type: cell-based, bovine; conditions: FIG. 7
Procedure: FIG. 7 illustrates the results of experiments where the ligands p97, Lf and Tf were heated or not heated prior to the binding study. In all cases, binding experiments were conducted in the transwell apparatus as described previously, with the exception that binding was conducted at either 4° C. or at 37° C. For the 37° C. trial, a separate experiment was conducted where the ligand was boiled for 30 mins then rapidly cooled prior to administration on the transwell plates.
FIG. 13 illustrates the transcytosis and accumulation of p97 and transferrin in BBCEC monolayers. FIG. 13a, Transcytosis experiments were performed at 37° C. (solid bars) or 4° C. (white bars). [^125I]-p97 or bovine [^125I]-holo-transferrin (1 mg/ml) was added to the upper side of the cell-covered filter. At the end of the experiment, radiolabelled proteins were measured in the lower chamber of each well by TCA precipitation (n=4). […] The surface plasmon resonance response obtained for native p97 and boiled p97 was plotted (in relative units (RU)) as a function of time; FIG. 13c, The accumulation of both proteins into BBEC cells were also measured. […] Accumulation of both denatured proteins (grey bars) was also measured at 37° C. Filters were then removed, and the radioactivity associated with the cells was quantified (n=3). […]

Substance: transferrin: transferrin (Tf), iron-binding serum protein used as comparator and competitor
- Apparent VD in the brain parenchyma [1]: 2.4 ml/100 g
- Inhibition of [125I]-p97 binding to BBCECs [2]: did not block or reduce
- Accumulation in BBB model cells (BBCEC monolayers): very little accumulation
